Test results reported in a melting point compilation (Tetko et al.; mined from patent text by program, amines drawn as free bases though some values may be those of a salt).

SMILES	melting point
ClCc1ccc(-c2ccccc2)cn1	73 °C
NC[C@H]1C=Cc2cc(F)cc(-c3c(Cl)cccc3Cl)c2O1	153 to 155 °C
O=C(Nc1ccc(-n2nc(-c3ccoc3)cc2OC(F)F)cc1)c1ccncc1F	172 to 174 °C
NCC1COc2cc(Cl)cc(-c3ccc(Cl)cc3C(F)(F)F)c2N1 (configuration not stated)	95 °C
CCOC(=O)c1cc([N+](=O)[O-])cc(Br)c1O	108 °C
COc1ccc2c(c1)C13CCN(C)C(C2)C1C(C)C(C)C(=O)C3 (configuration not stated)	101 to 102 °C
Cc1ccc(-c2ccc3c(c2)C=C(C(=O)Nc2ccc(-c4cccnc4)cc2)CCO3)cc1	214 to 216 °C
Clc1ccc(NC2CCN(Cc3ccccc3)CC2)nn1	208 to 209 °C
COc1cc2c(Nc3ccc(Cl)cc3F)ncnc2cc1OCCCOc1ccncc1	138 to 140 °C
O=C(NCc1ccccc1N1CCNCC1)c1cnc2c(-c3cccc(Cl)c3)cnn2c1	185 to 188 °C
CC1=C(O)C(=O)c2ccccc2C1=O	173 to 174 °C
CC1(C)CCC(C)(C)c2cc(COc3ccccc3-c3ccccc3C(=O)O)ccc21	75 to 76 °C
CCCOC(=O)C1=C(N)NC(C)=C(C#N)C1c1cccc2ncc(-c3ccccc3)cc12 (configuration not stated)	237 °C
CCCCSc1nc(=O)n(C(=O)NC)s1	102 °C
CCOCCc1cc(OC)c(-c2ccc(C[C@H](NC(=O)c3c(F)cccc3F)C(=O)O)cc2)c(OC)c1	63 to 70 °C
CC1(C2CCCC2)Cc2cc(OCCCC#N)c(Cl)c(Cl)c2C1=O (configuration not stated)	112 °C
c1ccc(OCCSCc2ncc(-c3ccc(OCCCN4CCCCCC4)cc3)o2)cc1	32 to 35 °C
Brc1ccc(OCCc2c[nH]cn2)cc1	162 to 165 °C
O=C1N(Cc2sccc2Cl)c2ccccc2C12COc1cc3c(cc12)OCO3 (configuration not stated)	161 to 163 °C
O=C(C=Cc1ccc(Br)cc1)c1cc(Br)ccc1[N+](=O)[O-]	169 to 190 °C
CC(C)(C)C1CC(=O)CC(C(C)(C)C)N1 (configuration not stated)	55.4 °C
Cc1ccc(S(=O)(=O)Oc2ccc(S(=O)(=O)c3c(C(C)C)cn4ncccc34)cc2)cc1	149 °C
NS(=O)(=O)c1ccc(C2=NC3(O)c4ccc(Cl)cc4CC3S2)cc1 (configuration not stated)	160 °C
COC(=O)C1(N(C)C(=O)Cc2c(C)cc(C)cc2C)CCN(OC)CC1	133 to 135 °C

SMILES	melting point
Cc1ccc(C)c2c1OCc1ccccc1C2C(=O)Nc1c(C(C)C)cccc1C(C)C (configuration not stated)	149 to 150 °C
O=C(NC(=O)N1CCC(Cc2ccc(F)cc2F)CC1)c1ccc(O)cc1	168 °C
Cc1cnc(C(=O)c2[nH]c3cc(Cl)ccc3c2CC(=O)O)c(C)c1	199 to 200 °C
CC1(CCCCn2c(=O)oc3ccccc32)Cn2cc([N+](=O)[O-])nc2O1 (configuration not stated)	155 to 158 °C
CCCCNC(=O)[C@@H](C[C@H](O)[C@H](CC1CCCCC1)NC(=O)[C@H](Cc1cscn1)NC(=O)[C@@H](CC(=O)N(C)Cc1ccccc1)Cc1ccccc1)C(C)C	155 to 156 °C
CC(C)Cc1sc2c(c1C(=O)c1ccccc1)CCC2C(=O)O (configuration not stated)	106 to 108 °C
c1cncc(-c2ccc3c(c2)OCO3)c1	92 to 92.5 °C
NC(C(=O)O)c1c(C(=O)O)csc1-c1ccccc1 (configuration not stated)	266 to 271 °C
COc1cc(C(=O)N2Cc3ccc(C(=O)C(Cl)(Cl)Cl)n3Cc3ccccc32)ccc1-c1ccccc1C	221 to 222 °C
Nc1nc(=O)n(C(=S)Oc2ccccc2)cc1F	113 to 116 °C
CCOCc1nc2c(N)nc3ccccc3c2n1CCOCCNS(=O)(=O)C(C)C	139 to 142 °C
O=C(c1ccc(OC(F)(F)F)cc1)c1sccc1O	67 to 70 °C
CCOC(=O)C1=C(C)NC(=S)N(C(=O)OCC)C1c1cccc(Cl)c1 (configuration not stated)	95 to 97 °C
COc1ccc(F)cc1C(=O)NC1COc2cc(OC)c(S(=O)(=O)NC(=S)NC(C)C)cc2C1 (configuration not stated)	179 to 180 °C
CN1CC(C#N)C(=O)c2cc3cc(F)c(F)cc3nc21 (configuration not stated)	144 °C
CC1(O)CC(=O)OC(CCc2ccc(OCc3ccc(F)cc3)cc2)C1 (configuration not stated)	144 °C
Cc1oc(-c2ccccc2)nc1CCOc1ccc(CC(Nc2ccccc2C(=O)c2ccccc2)C(=O)O)c2sccc12 (configuration not stated)	124 to 127 °C
CCCCOCc1cc2ccccc2oc1=Nc1ccccc1	86 to 88 °C
CCOc1ccc(-c2ccc3c(c2)C=C(C(=O)O)CCN3S(C)(=O)=O)cc1F	237 to 239 °C
COc1cccc(-n2ncc(C(=O)O)c2C(N)=O)c1	213 to 216 °C
CN(C(=S)SC(C[N+](=O)[O-])c1ccccc1)c1ccccc1 (configuration not stated)	111 to 116 °C
CC(C)(Oc1ccc(NC(=O)Oc2ccc(Cl)cc2)cc1)C(=O)O	179 to 182 °C
CC(C)OC(=O)N1CCC(c2nc3cc(-c4ccc(C(F)(F)F)cc4)ccc3o2)CC1	123 to 126 °C
c1ccc(Nc2ncnc3cnccc23)cc1	161 °C

SMILES	melting point
COc1cccc(-c2ccc3c(c2)C2(CCCCC2)C(=NOCc2ccccc2)N3)c1	101 to 104 °C
Cn1c(C(=O)c2ccc(Cc3ccc(F)cc3)o2)c(O)c(=O)n1C	110 to 111 °C
O=c1[nH]c2cccc(Cl)c2c(=O)n1CCCN1CC=C(c2ccc(Cl)cc2)CC1	190 to 194 °C
Fc1cccc(C(F)(F)F)c1N(CC1CC1)C1=NCCN1	126 to 127 °C
CCn1c2s[nH]c(=O)c2c(=O)c2cc(F)c(N3CCN(c4ncccn4)CC3)c(OC(F)F)c21	259 to 262 °C
CN1C(=O)SC(S(=O)(=O)c2cccc3c(Br)cccc23)C1=O (configuration not stated)	150 to 151 °C
COC(=O)CCc1ccccc1-c1[nH]c2cccc3c2c1CCNC3=O	201 to 202 °C
O=C(Oc1c(F)c(F)c(F)c(F)c1F)c1ccccn1	62 to 64 °C
CNC(=O)c1cc(-c2ccc(OC)cc2)nn(CC(=O)Nc2ccc(SC)cc2)c1=O	231 to 232 °C
O=c1c2ccccc2[nH]n1C(c1ccccc1)c1ccccc1	179 to 181 °C
CC1(C)Oc2ccc(C#N)cc2C(Oc2cccnn2)C1(C)O (configuration not stated)	93 to 105 °C
O=CNCC(=O)c1ccc(Cl)s1	111 to 113 °C
COc1ccc(NN=C2CCCCC2=O)cc1	177 °C
COc1cc(NCCCCCCO)c2nccc(C)c2c1	97 to 99 °C
CC1CN(c2ccc(Cl)cc2)N=C1NC(=O)C(F)(F)F (configuration not stated)	181 to 183 °C
CCCCc1nc2c(C(F)(F)F)cccc2c(O)c1C(=O)OCC	68 to 69 °C
CNC(c1nc(-c2ccc3c(c2)Nc2ccccc2S3)cs1)C(C)C (configuration not stated)	130 °C
COc1cc(C(C)C)c2c(c1)S(=O)(=O)N(CCl)C2=O	151 to 152 °C
Cc1ccccc1-c1cc2cnc(N)nc2nc1NC(=O)NC(C)(C)C	195 to 197 °C
CCOC(=O)c1nc(-c2cccc(C)c2)cn1C	176 to 177 °C
CCNC(=S)N1CCN(c2ccc3ccccc3n2)CC1	193 to 195 °C
CC(COc1ccccc1)NC(=Nc1cccnc1)NC#N (configuration not stated)	130 to 133 °C
CCc1nc(CC)c(CO)c(-c2ccccc2)c1CC	100 °C
O=C1N(Cc2ncccc2F)c2ccccc2C12COc1cc3c(cc12)OCCO3 (configuration not stated)	125 to 126 °C
